“Also recorded” adds a separate entry of the source.
How the values were obtained:
[1] = system: [PSI+] prion, "strong" strain 74-D694; format: cell-based, Saccharomyces cerevisiae
[2] = system: [URE3] prion (Ure2p), NT34 strain; format: cell-based, Saccharomyces cerevisiae; details: for red halo on NT34 lawn ([URE3] secondary screen): FIG. 6
[3] = system: [URE3] prion, NT34 and CC34 strains; format: cell-based, Saccharomyces cerevisiae
[4] = biological target: PrP^sc in ScN2a-22L cells (Mus musculus, UniProt P04925); format: cell-based
[5] = system: [PSI+] prion (prion form of the protein Sup35p), STRg6 strain; format: cell-based, Saccharomyces cerevisiae; details: for relative anti-prion activity on a dish (FIG. 4): 10 μl of a 10 mM solution applied; for activity against the [PSI+] prion (FIG. 7, validation of the screen) / activity compared with another compound in the screen: medium contains 200 μM of guanidium chloride; for synergy of action with guanidium chloride: sub-effective guanidium chloride in medium (200 μM, 500 μM)
mammal prion PrP = mammal prion PrP (Mus musculus, UniProt P04925); details: cited from earlier work
Sequence of mammal prion PrP (P04925 23-230 limits assumed): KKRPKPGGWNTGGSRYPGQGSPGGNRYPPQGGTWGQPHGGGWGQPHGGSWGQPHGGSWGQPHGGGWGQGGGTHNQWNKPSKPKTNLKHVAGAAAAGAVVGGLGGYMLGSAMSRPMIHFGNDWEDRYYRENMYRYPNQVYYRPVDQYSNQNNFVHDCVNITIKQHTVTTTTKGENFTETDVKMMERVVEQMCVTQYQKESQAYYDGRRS

Sequence of PrP^sc in ScN2a-22L cells (P04925 23-230 limits assumed): as above

Structure (SMILES): Nc1nc2ccccc2c2ccccc12 [6-aminophenanthridine]
- curing of the [PSI+] prion in liquid medium ([1]; 5 days liquid culture, compound alone, FIG. 5): capable of partially curing the [PSI+] prion from a significant number of cells
- curing effectiveness with added guanidium chloride in liquid medium ([1]; plus sub-effective dose (100 μM) of guanidium chloride): increased
- red halo on NT34 lawn ([URE3] secondary screen) [2]: cause the appearance of a red halo
- colony colour of NT34 cells recovered around the filter, on fresh medium free of molecules [3]: red colonies
- curing of the [URE3] prion (ability to grow on USA medium) ([3]; CC34 strain, different doses, alone): capable of curing the [URE3] prion in a significant manner
- curing of the [URE3] prion in combination with guanidium chloride ([3]; CC34 strain, with 200 μM of guanidium chloride): accentuated
- elimination of the mammal prion in vitro (summary) [4]: effective
- effect on the elimination of PrPsc ([4]; at 2 and 4 μM): same effect
- general statement of anti-prion activity in the screen [5]: particularly active
- relative anti-prion activity on a dish (FIG. 4) [5]: still more active than the Kastellpaolitines and phenanthridine

Structure (SMILES): Nc1nc2ccccc2c2ccc(Cl)cc12 [6A-8CP, 6-amino-8-chlorophenanthridine]
- relative anti-prion activity on a dish (FIG. 4) [5]: again increased the activity

Structure (SMILES): Nc1nc2ccccc2c2ccc(C(F)(F)F)cc12 [6A-8tFP, 6-amino-8-trifluoromethylphenanthridine]
- relative anti-prion activity on a dish (FIG. 4) [5]: one of the most active compounds

Structure (SMILES): CC(=O)c1ccc2c(c1)N(CCCN(C)C)c1ccccc1S2 [acepromazine]
- activity against the [PSI+] prion (FIG. 7, validation of the screen) [5]: weak activity
- activity in the mammal system (Prof. Prusiner's test) (mammal prion PrP): slightly active

Structure (SMILES): NC(=O)N1c2ccccc2C=Cc2ccccc21 [carbamazepine]
- activity against the [PSI+] prion (FIG. 7, validation of the screen) [5]: inactive
- activity in the mammal system (Prof. Prusiner's test) (mammal prion PrP): inactive

Structure (SMILES): CN(C)CC/C=C1/c2ccccc2Sc2ccc(Cl)cc21 [chloroprothixene]
- activity against the [PSI+] prion (FIG. 7, validation of the screen) [5]: inactive
- activity in the mammal system (Prof. Prusiner's test) (mammal prion PrP): inactive

Structure (SMILES): CN(C)CCCN1c2ccccc2Sc2ccc(Cl)cc21 [chlorpromazine]
- activity against the [PSI+] prion (FIG. 7, validation of the screen) [5]: a certain activity
- activity compared with another compound in the screen [5]: clearly weaker than that of 6-aminophenanthridine
- synergy of action with guanidium chloride [5]: strong synergy of action

Structure (SMILES): Cl.N=C(N)N [guanidium chloride]
- curing of [PSI+] cells (red staining of the drop of cells) ([1]; 5 mM guanidium chloride, 0.2% DMSO, after 48 hours (approximately 12 generations)): complete curing
- colony colour of NT34 strain after treatment ([2]; 5 mM of guanidium chloride for approximately ten generations): red colonies
- colony colour of NT34 cells recovered around the filter, on fresh medium free of molecules [3]: red colonies

Structure (SMILES): O=C(CCCN1CCC(O)(c2ccc(Cl)cc2)CC1)c1ccc(F)cc1 [haloperidol]
- activity against the [PSI+] prion (FIG. 7, validation of the screen) [5]: inactive
- activity in the mammal system (Prof. Prusiner's test) (mammal prion PrP): inactive

Structure (SMILES): CN(C)CCCN1c2ccccc2CCc2ccccc21 [imipramine]
- activity against the [PSI+] prion (FIG. 7, validation of the screen) [5]: inactive
- activity in the mammal system (Prof. Prusiner's test) (mammal prion PrP): inactive

Structure (SMILES): CN(C)c1ccc2nc3ccc(=[N+](C)C)cc-3sc2c1 [methylene blue]
- activity against the [PSI+] prion (FIG. 7, validation of the screen) [5]: inactive
- activity in the mammal system (Prof. Prusiner's test) (mammal prion PrP): inactive

Structure (SMILES): c1ccc2c(c1)cnc1ccccc12 [phenanthridine]
- red halo on NT34 lawn ([URE3] secondary screen) [2]: cause the appearance of a red halo
- colony colour of NT34 cells recovered around the filter, on fresh medium free of molecules [3]: red colonies
- general statement of anti-prion activity in the screen [5]: particularly active
- anti-prion activity: red halo around the filter disc (size of the halo) ([5]; 15 μl of a 10 mM solution in DMSO, medium with 0.2 mM guanidium chloride, FIG. 3): positive signal
- activity on a medium without guanidium chloride ([5]; medium without guanidium chloride): always active
- synergy of action with guanidium chloride [5]: activity increases significantly as a function of the quantity of guanidium chloride

Structure (SMILES): CCN(CC)CCCC(C)Nc1c2ccc(Cl)cc2nc2ccc(OC)cc12 (stereo not drawn) [quinacrine]
- activity against the [PSI+] prion (FIG. 7, validation of the screen) [5]: a certain activity
- activity compared with another compound in the screen [5]: clearly weaker than that of 6-aminophenanthridine; also recorded: activity greater than the latter

Structure (SMILES): COc1ccc(CCN(C)CCCC(C#N)(c2ccc(OC)c(OC)c2)C(C)C)cc1OC (stereo not drawn) [verapamil]
- activity against the [PSI+] prion (FIG. 7, validation of the screen) [5]: no curative effect could be detected
